Laboratory results reported in patent US9802921B2, “Fluoromethyl-substituted pyrrole carboxamides iv” (Grünenthal GmbH, priority 2013, dated 2017).

Target: T1, Human CaV2.2 channels (Homo sapiens, UniProt Q00975)
T1 construct: expressed in transfected cells
Assay: Fluorescent assay for CaV2.2 channels using potassium depolarization to induce channel opening (FLIPR, Fluo 4)
Format: cell-based
Details: read-out: Activity Category: %-Inhib (CaV2.2) @3 μM @30 mM KCl; 3 μM test compound; 30 mM KCl as printed; HEK293 cells stably expressing human CaV2.2
From the text: In the process, the Ca^2+ influx is quantified in the FLIPR assay with the aid of a Ca^2+-sensitive dye (type Fluo-4, Molecular Probes Europe BV, Leiden, the Netherlands) in a fluorescent imaging plate reader (FLIPR 3, Molecular Devices, Sunnyvale, USA), as described hereinafter.
Human CaV2.2 channels were stably expressed in HEK293 cells together with alpha2-delta and beta subunits of voltage gated calcium channels. In addition, an inwardly rectifying potassium channel (Kir2.3) was stably expressed in these cells to augment control of the cell membrane potential by the concentration of extracellular potassium ions. Raise of the extracellular potassium concentration leads to depolarization of the membrane potential and thus regulates the voltage dependent state of CaV2.2 channels. For preparation, cells were seeded in black poly-D-lysine coated 96-well plates (Becton Dickinson, Biocoat 4640) in 100 μL medium [500 mL DMEM/F-12 plus Glutamax (Invitrogen 31331-093) plus 5.5 mL MEM NEAA 100× (Invitrogen 11140-035) plus 50 mL FBS decomplemented (Invitrogen 10270-106) plus 200 μg/mL Geneticin (Invitrogen 10131-027) plus 50 μg/mL Hygromycin B (Invitrogen 10687-010) plus 2 μg/mL Blasticidin (anti-bl5b Invivo-Gen) plus 0.2 μg/mL Puromycin (A 11138-03)] at a cell density of 30.000 cells per well. Plates were incubated at 37° C. (5% CO2) for 20 to 23 h. On the day of experiment medium was discarded and cells were loaded with Fluo 4 by addition of 100 μL of basic assay buffer (10 mM HEPES, 1 mM KCl, 149 mM NaCl, 0.8 mM CaCl2, 1.7 mM MgCl2, 10 mM Glucose, 0.1% BSA. pH 7.4) containing 2 μM Fluo 4 (Molecular Probes; F-14201), 0.01% pluronic acid (Molecular Probes; P-6866) and 2.5 mM probenecid (Molecular Probes; P36400). Cells were incubated in the dark at 25° C. for 60 min. Then dye containing buffer was discarded and 100 μL basic (1 mM KCl) or alternative (30 mM KCl) assay buffer was added. The alternative assay buffer contained altered concentrations of KCl (30 mM) and NaCl (120 mM) and was used in order to promote the inactivated channel state. After that 25 μL of basic or alternative assay buffer with or without test compound were added and cells were incubated again in the dark at 25° C. for 15 min. Fluorescence intensity was measured on a FLIPR 3 instrument (Molecular Devices Corp., Sunnyvale, Calif.) with excitation at 480 nm and emission at 535 nm. After continuously reading fluorescence for 30 sec, 50 μL of basic assay buffer containing 210 mM KCl (NaCl omitted) were added for depolarization. Peak fluorescent signal intensity was determined and the amplitude of the peak signal, normalized to base line, was used to measure channel inhibition by test compounds.

T1 sequence (Q00975 whole entry): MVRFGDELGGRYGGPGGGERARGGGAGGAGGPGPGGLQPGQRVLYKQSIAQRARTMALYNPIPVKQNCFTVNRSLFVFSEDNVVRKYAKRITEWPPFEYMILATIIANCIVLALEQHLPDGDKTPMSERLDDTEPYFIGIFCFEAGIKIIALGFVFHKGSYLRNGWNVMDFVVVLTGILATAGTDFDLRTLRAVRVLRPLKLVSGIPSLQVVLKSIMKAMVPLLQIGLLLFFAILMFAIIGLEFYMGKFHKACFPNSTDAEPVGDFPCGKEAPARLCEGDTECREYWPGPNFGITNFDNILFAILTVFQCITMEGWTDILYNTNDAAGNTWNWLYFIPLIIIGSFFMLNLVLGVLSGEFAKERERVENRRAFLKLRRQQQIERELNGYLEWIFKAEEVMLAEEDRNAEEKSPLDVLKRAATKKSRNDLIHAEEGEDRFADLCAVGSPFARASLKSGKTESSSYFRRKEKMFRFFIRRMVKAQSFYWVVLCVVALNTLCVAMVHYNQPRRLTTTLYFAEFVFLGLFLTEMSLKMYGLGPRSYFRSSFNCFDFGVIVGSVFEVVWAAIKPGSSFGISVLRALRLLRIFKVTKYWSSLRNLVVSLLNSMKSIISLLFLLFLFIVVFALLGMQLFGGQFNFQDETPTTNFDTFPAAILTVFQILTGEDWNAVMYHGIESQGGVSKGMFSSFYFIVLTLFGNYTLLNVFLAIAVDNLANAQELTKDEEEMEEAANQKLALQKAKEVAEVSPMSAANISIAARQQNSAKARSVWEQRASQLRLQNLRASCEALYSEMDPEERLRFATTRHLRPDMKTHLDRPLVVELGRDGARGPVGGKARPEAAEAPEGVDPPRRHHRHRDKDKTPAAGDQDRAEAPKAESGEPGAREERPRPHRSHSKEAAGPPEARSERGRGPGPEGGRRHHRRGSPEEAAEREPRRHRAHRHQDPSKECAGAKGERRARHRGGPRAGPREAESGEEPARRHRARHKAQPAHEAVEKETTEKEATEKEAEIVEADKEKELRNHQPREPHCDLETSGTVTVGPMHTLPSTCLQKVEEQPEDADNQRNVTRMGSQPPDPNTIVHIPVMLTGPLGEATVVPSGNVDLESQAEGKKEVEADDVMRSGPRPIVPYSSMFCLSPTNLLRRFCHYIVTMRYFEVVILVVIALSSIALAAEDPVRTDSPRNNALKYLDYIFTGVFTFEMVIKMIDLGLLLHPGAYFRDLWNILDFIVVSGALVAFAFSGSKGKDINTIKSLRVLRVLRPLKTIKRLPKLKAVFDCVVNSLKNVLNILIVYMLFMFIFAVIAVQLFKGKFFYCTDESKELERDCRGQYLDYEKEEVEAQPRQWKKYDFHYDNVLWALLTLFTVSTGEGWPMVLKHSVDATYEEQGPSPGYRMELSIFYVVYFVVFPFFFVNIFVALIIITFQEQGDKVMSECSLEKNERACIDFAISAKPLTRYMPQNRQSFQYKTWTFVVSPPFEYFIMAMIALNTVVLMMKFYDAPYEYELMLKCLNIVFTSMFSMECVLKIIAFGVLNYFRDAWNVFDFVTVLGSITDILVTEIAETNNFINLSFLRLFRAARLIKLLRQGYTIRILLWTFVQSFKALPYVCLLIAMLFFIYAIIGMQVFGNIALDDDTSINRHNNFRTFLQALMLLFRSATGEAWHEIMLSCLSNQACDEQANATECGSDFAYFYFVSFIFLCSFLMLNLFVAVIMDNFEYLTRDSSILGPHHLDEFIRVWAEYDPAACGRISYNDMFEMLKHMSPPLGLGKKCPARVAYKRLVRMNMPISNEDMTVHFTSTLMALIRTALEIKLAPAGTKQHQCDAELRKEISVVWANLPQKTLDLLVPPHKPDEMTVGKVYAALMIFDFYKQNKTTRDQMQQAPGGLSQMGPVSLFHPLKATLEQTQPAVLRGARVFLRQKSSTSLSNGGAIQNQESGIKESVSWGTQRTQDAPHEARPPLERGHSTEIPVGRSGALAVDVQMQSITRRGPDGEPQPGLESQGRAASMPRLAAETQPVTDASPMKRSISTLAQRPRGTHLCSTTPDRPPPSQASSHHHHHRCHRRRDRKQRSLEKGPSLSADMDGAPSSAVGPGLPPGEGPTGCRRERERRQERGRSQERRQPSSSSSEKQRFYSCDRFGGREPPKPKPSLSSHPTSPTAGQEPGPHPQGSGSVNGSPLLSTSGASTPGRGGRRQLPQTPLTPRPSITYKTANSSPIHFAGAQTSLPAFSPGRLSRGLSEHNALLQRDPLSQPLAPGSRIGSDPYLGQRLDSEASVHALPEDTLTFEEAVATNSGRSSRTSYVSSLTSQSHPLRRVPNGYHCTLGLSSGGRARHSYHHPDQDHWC
T1 sequence (P54289 25-1103, further chain): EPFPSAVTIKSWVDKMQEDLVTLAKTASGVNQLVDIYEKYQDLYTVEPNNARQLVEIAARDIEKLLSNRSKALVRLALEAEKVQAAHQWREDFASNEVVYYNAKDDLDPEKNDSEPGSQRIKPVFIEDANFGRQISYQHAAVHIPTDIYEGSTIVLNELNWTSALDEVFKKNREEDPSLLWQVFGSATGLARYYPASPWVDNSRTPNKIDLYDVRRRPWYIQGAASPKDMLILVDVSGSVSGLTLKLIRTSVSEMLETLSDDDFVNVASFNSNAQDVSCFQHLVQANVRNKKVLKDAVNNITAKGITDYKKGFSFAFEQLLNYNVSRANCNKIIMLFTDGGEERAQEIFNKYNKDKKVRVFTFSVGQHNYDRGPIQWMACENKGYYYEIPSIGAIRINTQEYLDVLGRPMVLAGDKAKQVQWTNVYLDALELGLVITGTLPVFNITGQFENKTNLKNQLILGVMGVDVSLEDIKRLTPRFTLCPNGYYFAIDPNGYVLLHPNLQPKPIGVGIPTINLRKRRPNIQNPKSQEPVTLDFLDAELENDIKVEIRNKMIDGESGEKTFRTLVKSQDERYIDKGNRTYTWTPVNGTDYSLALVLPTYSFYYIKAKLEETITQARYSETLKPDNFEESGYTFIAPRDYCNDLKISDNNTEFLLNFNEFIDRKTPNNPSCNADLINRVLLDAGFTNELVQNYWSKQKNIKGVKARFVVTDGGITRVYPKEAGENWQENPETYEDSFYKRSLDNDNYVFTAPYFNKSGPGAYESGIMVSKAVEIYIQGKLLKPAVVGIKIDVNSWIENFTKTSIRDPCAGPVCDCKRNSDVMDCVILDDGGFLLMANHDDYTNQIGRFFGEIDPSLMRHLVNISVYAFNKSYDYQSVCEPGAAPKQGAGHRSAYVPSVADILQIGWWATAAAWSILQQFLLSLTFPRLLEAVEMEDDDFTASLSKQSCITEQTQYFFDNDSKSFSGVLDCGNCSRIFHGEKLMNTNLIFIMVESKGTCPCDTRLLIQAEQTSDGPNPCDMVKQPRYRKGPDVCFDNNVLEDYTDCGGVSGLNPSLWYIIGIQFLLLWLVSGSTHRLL
T1 sequence (P54284 whole entry, further chain): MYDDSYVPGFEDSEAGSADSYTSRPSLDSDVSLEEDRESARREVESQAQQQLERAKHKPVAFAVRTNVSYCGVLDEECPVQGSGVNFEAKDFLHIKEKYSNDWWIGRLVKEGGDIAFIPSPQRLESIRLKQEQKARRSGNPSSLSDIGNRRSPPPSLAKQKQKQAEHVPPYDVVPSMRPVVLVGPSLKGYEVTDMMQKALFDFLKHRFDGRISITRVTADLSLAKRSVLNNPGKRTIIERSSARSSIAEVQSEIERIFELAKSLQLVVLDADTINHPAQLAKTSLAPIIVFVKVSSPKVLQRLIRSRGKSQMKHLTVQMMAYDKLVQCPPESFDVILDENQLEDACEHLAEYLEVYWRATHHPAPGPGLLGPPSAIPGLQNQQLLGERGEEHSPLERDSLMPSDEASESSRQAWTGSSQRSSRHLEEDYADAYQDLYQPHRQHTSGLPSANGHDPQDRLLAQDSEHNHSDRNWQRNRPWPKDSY

Structure (SMILES): CCc1cc(Cn2c(C(=O)N(C)CCS(C)(=O)=O)c(-c3ccc(Cl)cc3)c(C)c2C(F)(F)F)on1 [Example 001, 3-(4-Chlorophenyl)-1-[(3-ethyl-isoxazol-5-yl)-methyl]-N,4-dimethyl-N-(2-methylsulfonyl-ethyl)-5-(trifluoromethyl)-1H-pyrrole-2-carboxylic acid amide]
- inhibition at 3 µM: > 95%

Structure (SMILES): Cc1c(-c2ccc(Cl)cc2)c(C(=O)N(C)CCS(C)(=O)=O)n(Cc2nccn2C)c1C(F)(F)F [Example 002, 3-(4-Chlorophenyl)-N,4-dimethyl-1-[(1-methyl-1H-imidazole-2-yl)-methyl]-N-(2-methylsulfonyl-ethyl)-5-(trifluoromethyl)-1H-pyrrole-2-carboxylic acid amide]
- inhibition at 3 µM: 40 to 75%

Structure (SMILES): Cc1c(-c2ccc(Cl)cc2)c(C(=O)N(C)CCS(C)(=O)=O)n(Cc2cncn2C)c1C(F)(F)F [Example 003, 3-(4-Chlorophenyl)-N,4-dimethyl-1-[(3-methyl-3H-imidazole-4-yl)-methyl]-N-(2-methylsulfonyl-ethyl)-5-(trifluoromethyl)-1H-pyrrole-2-carboxylic acid amide]
- inhibition at 3 µM: 40 to 75%

Structure (SMILES): CN(CC(C)(C)C)C(=O)c1c(-c2ccc(Cl)cc2)cc(C(F)(F)F)n1Cc1ccnn1C [Example 008, 3-(4-Chlorophenyl)-N-(2,2-dimethyl-propyl)-N-methyl-1-[(2-methyl-2H-pyrazol-3-yl)-methyl]-5-(trifluoromethyl)-1H-pyrrole-2-carboxylic acid amide]
- inhibition at 3 µM: 75 to 95%

Structure (SMILES): CN(CC(C)(C)C)C(=O)c1c(-c2ccc(Cl)cc2)cc(C(F)(F)F)n1Cc1cn(C)nn1 [Example 009, 3-(4-Chlorophenyl)-N-(2,2-dimethyl-propyl)-N-methyl-1-[(1-methyl-1H-[1,2,3]triazol-4-yl)-methyl]-5-(trifluoromethyl)-1H-pyrrole-2-carboxylic acid amide]
- inhibition at 3 µM: 75 to 95%

Structure (SMILES): CN(CC(C)(C)C)C(=O)c1c(-c2ccc(Cl)cc2)cc(C(F)(F)F)n1Cc1nc(C(F)(F)F)no1 [Example 010, 3-(4-Chlorophenyl)-N-(2,2-dimethyl-propyl)-N-methyl-5-(trifluoromethyl)-1-[[3-(trifluoromethyl)-[1,2,4]oxadiazol-5-yl]-methyl]-1H-pyrrole-2-carboxylic acid amide]
- inhibition at 3 µM: 75 to 95%

Structure (SMILES): Cc1noc(Cn2c(C(F)(F)F)cc(-c3ccc(Cl)cc3)c2C(=O)N(C)CC(C)(C)C)n1 [Example 011, 3-(4-Chlorophenyl)-N-(2,2-dimethyl-propyl)-N-methyl-1-[(3-methyl-[1,2,4]oxadiazol-5-yl)-methyl]-5-(trifluoromethyl)-1H-pyrrole-2-carboxylic acid amide]
- inhibition at 3 µM: > 95%

Structure (SMILES): Cc1nc(Cn2c(C(F)(F)F)cc(-c3ccc(Cl)cc3)c2C(=O)N(C)CC(C)(C)C)no1 [Example 012, 3-(4-Chlorophenyl)-N-(2,2-dimethyl-propyl)-N-methyl-1-[(5-methyl-[1,2,4]oxadiazol-3-yl)-methyl]-5-(trifluoromethyl)-1H-pyrrole-2-carboxylic acid amide]
- inhibition at 3 µM: > 95%

Structure (SMILES): CN(CC(C)(C)C)C(=O)c1c(-c2ccc(Cl)cc2)cc(C(F)(F)F)n1Cc1ncn(C)n1 [Example 013, 3-(4-Chlorophenyl)-N-(2,2-dimethyl-propyl)-N-methyl-1-[(1-methyl-1H-[1,2,4]triazol-3-yl)-methyl]-5-(trifluoromethyl)-1H-pyrrole-2-carboxylic acid amide]
- inhibition at 3 µM: 75 to 95%

Structure (SMILES): Cc1nnc(Cn2c(C(F)(F)F)cc(-c3ccc(Cl)cc3)c2C(=O)N(C)CC(C)(C)C)o1 [Example 014, 3-(4-Chlorophenyl)-N-(2,2-dimethyl-propyl)-N-methyl-1-[(5-methyl-[1,3,4]oxadiazol-2-yl)-methyl]-5-(trifluoromethyl)-1H-pyrrole-2-carboxylic acid amide]
- inhibition at 3 µM: 75 to 95%
